The source of these data is ChEMBL document CHEMBL5120965, “Moroidin, a Cyclopeptide from the Seeds of Celosia cristata That Induces Apoptosis in A549 Human Lung Cancer Cells” (J Nat Prod, 2022).

A word on the pIC50: it is the negative decadic logarithm of the IC50, by convention in mol/L.

In experiment [1] the test system is A549. Briefly: Induction of microtubule depolymerization in human A549 cells assessed as occurence of rounded cells at 2.5 uM measured after 48 hrs by DAPI staining based immunofluorescence assay. The experiment is classed as functional, cell-based.
Experiment [2] relates to A549. Briefly: Induction of microtubule depolymerization in human A549 cells assessed as reduction in tubulin protein level at 2.5 uM by Western blot analysis. Type of experiment: functional. Also on record: scale not given: the % may be the effect or the level left. (A western blot detects proteins with antibodies after separation by electrophoresis.)
Experiment [3] relates to A549. Description: Antiproliferative activity against human A549 cells assessed as reduction in cell viability at 0.01 to 100 uM measured after 24 to 72 hrs by MTT assay. The experiment is classed as functional, cell-based. The conditions noted are these: dose 0.01-100 µM, time 24-72 hrs.
For experiment [4], the system named is A549. Description: Induction of microtubule depolymerization in human A549 cells assessed as occurence of cell shrinkage at 2.5 uM measured after 48 hrs by DAPI staining based immunofluorescence assay. Type of experiment: functional.
For experiment [5], the system named is A549. Briefly: Antimigratory activity against human A549 cells assessed as migration of cells into scratch area at 0.5 uM measured after 48 hrs by scratch assay based microscopic analysis (reference value: 85.15%). Type of experiment: functional.
The test system of experiment [6] is A549. Briefly: Antimigratory activity against human A549 cells assessed as reduction in number of migrated cells measured after 48 hrs by transwell assay based microscopic analysis. The experiment is classed as functional, cell-based. The settings on record: dose 0.5-2 µM, DDE = dose-dependent effect.
Experiment [7] relates to MCF7. Briefly: Inhibition of colony formation in human MCF7 cells measured after 10 days by crystal violet staining based assay. Type of experiment: functional, cell-based. The settings on record: dose 1.25-20 µM, time 10.0 day, DDE = dose-dependent effect.
Experiment [8] deals with A549. Description: Induction of cell cycle arrest in human A549 cells assessed as increase in accumulation of cells at G2/M phase at 5 to 20 uM measured after 48 hrs by […]propidium iodide staining based flow cytometry analysis (reference value: 8.33%). The experiment is classed as functional. The settings on record: dose 5-20 µM. A general note: A flow cytometer gives signals particle by particle.

In experiment [9] the test system is A549. Description: Induction of cell apoptosis in human A549 cells assessed as reduction in AKT phosphorylation at 5 to 20 uM measured after 48 hrs by Western blot analysis. Type of experiment: functional, cell-based. The conditions noted are these: dose 5-20 µM.
Experiment [10] deals with MCF7. Briefly: Cytotoxicity against human MCF7 cells assessed as reduction in cell viability incubated for 72 hrs by MTT assay. The experiment is classed as functional, cell-based. The conditions noted are these: MCF7, 72 h. For orientation: Tetrazolium assays rely on reduction of a dye to a coloured formazan, in cell work by metabolically active cells.
Experiment [11] has as its system A549. Description: Induction of cell apoptosis in human A549 cells assessed as increase in cleaved-caspase 9 level measured after 48 hrs by Western blot analysis. Type of experiment: functional, cell-based. The settings on record: dose 5-20 µM, DDE = dose-dependent effect.
For the next experiment, the system named is U-87 MG. Briefly: Cytotoxicity against human U87 cells assessed as reduction in cell viability incubated for 72 hrs by MTT assay. The experiment is classed as functional, cell-based, U-87MG ATCC.
The subject of experiment [12] is A549. Description: Induction of cell apoptosis in human A549 cells assessed as increase in Bax expression level at 5 to 20 uM measured after 48 hrs by Western blot analysis. Type of experiment: functional, cell-based. The settings on record: dose 5-20 µM.
In experiment [13] the test system is A549. Briefly: Inhibition of colony formation in human A549 cells up to 20 uM measured after 10 days by crystal violet staining based assay. The experiment is classed as functional, cell-based. The settings on record: dose 1.25-20 µM, time 10.0 day, DDE = dose-dependent effect.
Experiment [14] relates to A549. Description: Induction of cell apoptosis in human A549 cells assessed as increase in apoptosis rate at 10 uM measured after 48 hrs by annexinV-FITC/propidium iodide staining based flow cytometry analysis (reference value: 3.27%). The experiment is classed as functional.
The test system of experiment [15] is A549. Description: Induction of cell apoptosis in human A549 cells assessed as reduction in AKT expression at 5 to 20 uM measured after 48 hrs by Western blot analysis. The experiment is classed as functional, cell-based. The settings on record: dose 5-20 µM.
Experiment [16] concerns A549. Briefly: Induction of cell apoptosis in human A549 cells assessed as increase in pro-caspase 3 level measured after 48 hrs by Western blot analysis. The conditions noted are these: dose 5-20 µM, DDE = dose-dependent effect. Type of experiment: functional, cell-based.
Experiment [17] deals with A549. Description: Cytotoxicity against human A549 cells assessed as reduction in cell viability incubated for 72 hrs by MTT assay. The experiment is classed as functional, cell-based. The settings on record: A549, 72 h.
In the next experiment the test system is U-251. Description: Cytotoxicity against human U-251 cells assessed as reduction in cell viability incubated for 72 hrs by MTT assay. The experiment is classed as functional, cell-based. The conditions noted are these: U-251, 72 h.
Experiment [18] deals with A549. Description: Induction of cell apoptosis in human A549 cells assessed as increase in pro-caspase 9 level measured after 48 hrs by Western blot analysis. Type of experiment: functional, cell-based. The conditions noted are these: dose 5-20 µM, DDE = dose-dependent effect.
For a further experiment, the system named is HCT-116. Briefly: Cytotoxicity against human HCT-116 cells assessed as reduction in cell viability incubated for 72 hrs by MTT assay. The experiment is classed as functional, cell-based. The settings on record: HCT-116, 72 h.
The subject of experiment [19] is A549. Description: Induction of cell apoptosis in human A549 cells assessed as increase in apoptosis rate at 20 uM measured after 48 hrs by annexinV-FITC/propidium iodide staining based flow cytometry analysis (reference value: 3.27%). The experiment is classed as functional.
For experiment [20], the system named is A549. Briefly: Induction of cell apoptosis in human A549 cells assessed as increase in cleaved PARP level measured after 48 hrs by Western blot analysis. Type of experiment: functional, cell-based. The settings on record: dose 5-20 µM, DDE = dose-dependent effect.
The subject of experiment [21] is A549. Briefly: Antimigratory activity against human A549 cells assessed as migration of cells into scratch area at 2 uM measured after 48 hrs by scratch assay based microscopic analysis (reference value: 85.15%). Type of experiment: functional.
For experiment [22], the system named is A549. Briefly: Induction of microtubule depolymerization in human A549 cells assessed as fragmentation of microtubule network measured after 48 hrs by DAPI staining based immunofluorescence assay. The experiment is classed as functional, cell-based. The settings on record: dose 2.5-5 µM.
Experiment [23] concerns A549. Briefly: Antimigratory activity against human A549 cells assessed as migration of cells into scratch area at 1 uM measured after 48 hrs by scratch assay based microscopic analysis (reference value: 85.15%). Type of experiment: functional.
The test system of experiment [24] is A549. Briefly: Induction of cell apoptosis in human A549 cells assessed as increase in Bax/Bcl-2 ratio at 5 to 20 uM measured after 48 hrs by Western blot analysis. The experiment is classed as functional, cell-based. The settings on record: dose 5-20 µM.
Experiment [25] concerns A549. Briefly: Induction of cell apoptosis in human A549 cells assessed as increase in PARP level measured after 48 hrs by Western blot analysis. The experiment is classed as functional, cell-based. The conditions noted are these: dose 5-20 µM, DDE = dose-dependent effect.
In experiment [26] the test system is A549. Description: Induction of cell apoptosis in human A549 cells assessed as increase in cleaved-caspase 3 level measured after 48 hrs by Western blot analysis. Type of experiment: functional, cell-based. The settings on record: dose 5-20 µM, DDE = dose-dependent effect.
For experiment [27], the system named is A549. Description: Induction of cell apoptosis in human A549 cells assessed as increase in apoptosis rate at 5 uM measured after 48 hrs by annexinV-FITC/propidium iodide staining based flow cytometry analysis (reference value: 3.27%). The experiment is classed as functional.
The test system of experiment [28] is A549. Description: Antiinvasive activity against human A549 cells assessed as reduction in number of invasion cells measured after 48 hrs by transwell assay based microscopic analysis. Type of experiment: functional, cell-based. The settings on record: dose 0.5-2 µM, DDE = dose-dependent effect.
Experiment [29] concerns A549. Briefly: Induction of cell cycle arrest in human A549 cells assessed as decrease in ratio of cells at G1 phase measured after 48 hrs by […]propidium iodide staining based flow cytometry analysis. The settings on record: dose 5-20 µM, DDE = dose-dependent effect. The experiment is classed as functional.
A further experiment deals with NCI-H1299. Briefly: Cytotoxicity against human H1299 cells assessed as reduction in cell viability incubated for 72 hrs by MTT assay. The conditions noted are these: NCI-H1299, 72 h. The experiment is classed as functional, cell-based.
Experiment [30] has as its system A549. Briefly: Induction of microtubule depolymerization in human A549 cells assessed as reduction in microtubule network measured after 48 hrs by DAPI staining based immunofluorescence assay. Type of experiment: functional, cell-based. The settings on record: dose 2.5-5 µM.
In experiment [31] the test system is A549. Description: Induction of cell apoptosis in human A549 cells assessed as decrease in Bcl-2 expression level at 5 to 20 uM measured after 48 hrs by Western blot analysis. Type of experiment: functional, cell-based. The conditions noted are these: dose 5-20 µM.

pIC50: −log10 of the molar value. The source made the active and inactive calls. The calls are words filed in the database; no cut-off is given here. Bounds are passed on as bounds.

With `COc1cc2c(c(OC)c1OC)-c1ccc(OC)c(=O)cc1[C@@H](NC(C)=O)CC2` [COLCHICINE], the outcome in the experiment with A549 [1], in the experiment on A549 [3] and in the experiment with A549 [4] was Active. In addition, in the experiment with A549 [2], the Activity is listed as 63%.
For `CC(C)C[C@@H]1NC(=O)[C@@H](NC(=O)[C@@H]2CCC(=O)N2)[C@H](C(C)C)c2ccc3c4c([nH]c3c2)-n2cnc(c2)C[C@@H](C(=O)O)NC(=O)CNC(=O)[C@H](CCCNC(=N)N)NC(=O)[C@H](C4)NC(=O)[C@H](C(C)C)NC1=O`, the Activity is 60.84% in the experiment on A549 [5]; “Dde” in the experiment with A549 [6]; 36.35% in the experiment with A549 [8]; “Dde” in the experiment with A549 [11]; 11.4% in the experiment with A549 [14]; “Dde” in the experiment with A549 [16]. Moreover, the Activity was 20% with A549 [2]; “Dde” in the experiment with A549 [18]; 20.62% in the experiment with A549 [19]; “Dde” in the experiment with A549 [20]; 21.92% in the experiment with A549 [21]; 40.22% in the experiment with A549 [23]. Also, the Activity result is “Dde” with A549 [25]; “Dde” with A549 [26]; 6.14% in the experiment with A549 [27]; “Dde” in the experiment on A549 [28]; “Dde” in the experiment with A549 [29]. For the same compound, the inhibition result with MCF7 [7] and in the experiment on A549 [13] was “Dde” in each case. Also, the result in the experiment on A549 [9], with A549 [12], in the experiment on A549 [15], with A549 [22], in the experiment on A549 [24] and in the experiment on A549 [30] was Active. Besides, the result in the experiment with A549 [31] was Active. The negative-log IC50 (pIC50) is under 5.00 in the experiment with MCF7 [10]; 5.02 with U-87 MG; 5.49 in the experiment on A549 [17]; 5.28 in the experiment with U-251; 5.00 in the experiment with HCT-116; 5.08 in the experiment on NCI-H1299.
